Reference: patent publication US10857227B2, “Immunostimulatory compositions” (ASSISTANCE PUBLIQUE-HOPITAUX DE PARIS, priority 2015, dated 2020)
Where no end group is shown, it is not given here. [ ]: non-standard residue; d: D form. Dopa = N[C@@H](Cc1ccc(O)c(O)c1)C(=O)O

Experiments:
[1] = test system: total splenocytes restimulated with MHC class-1 epitope SIINFEKL (Ovalbumine); assay: IFNg-secretion Elispot of splenocytes after immunization, restimulation with Ovalbumine epitope; format: in vivo, C57-B16 mice; details: for immune response, Dopamine as melanin precursor: peptides with Dopamine; for immune response after 2 immunizations, Dopa as melanin precursor: 3.6 μg peptide co-incubated 18 hours with 100 μg DOPA pH 8.5; for CD8 / CTL immune response: 1 μg peptide + 10 μg CpG-28, day 0 & day 7; for CD8 / CTL immune response / CD8 immune response (IFNg spots): day 14; for CD8 immune response (IFNg spots): Ovalbumine epitope alone or mixed with 10 μg DOPA, with or without 18 hours oxygen incubation, + CpG-28
Experimental: (§1) […] After 2 immunizations, the CD8+immune response was evaluated on day 14 using a gamma interferon (IFNg)-secretion Elispot assay, after restimulation of total splenocytes with the relevant MHC class-1 epitope ([…] (SEQ ID NO: 2) for Ovalbumine or […] (SEQ ID NO: 3) for human gp100)

[2] = 10 kD filtration and SDS-PAGE of melanin-EphA2 complex; format: physicochemical
Experimental: FIG. 11: SDS-PAGE (16% polyacrylamide gel) of various preparations: lane MW: molecular weight marker; lane “Ctrl EphA2”: control peptide EphA2 alone (SEQ ID NO: 9); lane “Filtrate”: filtrate of complex melanin-EphA2 after filtration on a 10 kD filter; lane “Retentate”: retentate of complex melanin-EphA2 after filtration on a 10 kD filter, resuspension, dissolution and heating in loading buffer containing SDS. (Melanin-EphA2 was obtained by co-incubating EphA2 peptide with L-Dopa (weight ration 1:10) in arerated conditions)
A solution of L-Dopa was mixed with an EPHA2 peptide ([…], SEQ ID NO: 9) at a weight ratio L-Dopa:epitope of 1:4. The mixture was then oxidized at pH 8.5 in aerated conditions.

[3] = test system: total splenocytes restimulated with MHC class-1 epitope KVPRNQDWL (human gp100); format: in vivo, C57-B16 mice; details: for number of IFNy-secreting lymphocytes mean +/− SD: gp100 peptide 10 μg/mouse + L-Dopa 40 μg/mouse incubated 18 hours aerated, mixed with the TLR9 agonist; for CD8 immune response with various melanin precursors: 10 μg hgp100 epitope co-incubated with melanin precursor, pH 8.5 Tris, + 10 μg CpG-28, subcutaneous
Experimental: as §1

[4] = test system: MHC I epitope of Trp2 (VYDFFVWL); assay: CD8 immune response to Trp2 epitope variants co-incubated with L-Dopa; format: in vivo, mice; details: peptide 10 μg/mouse co-incubated with L-Dopa 100 μg/mouse, then mixed to CpG-28 10 μg/mouse; immunized once; day 8
Experimental: (§2) C57-B16, 5-week old, mice were immunized twice (on day 1 and day 7) with the different formulations combined to a Toll-like Receptor 9 (TLR-9) agonist (10 μg of the CpG-28 oligonucleotide, […] (SEQ ID NO: 1)). After 2 immunizations, the CD8+immune response was evaluated on day 14 using a gamma interferon (IFNg)-secretion Elispot assay, after restimulation of total splenocytes with the relevant MHC class-1 epitope ([…] (SEQ ID NO: 2) for Ovalbumine or […] (SEQ ID NO: 3) for human gp100)
(§3) Adding arginines (R) or lysines (K) to the NH2-terminal end of the peptides enhanced the immune response when compared to unmodified Trp2 (animals were immunized once with formulations consisting of the peptide (10 μg/mouse) co-incubated with L-Dopa (100 μg/mouse), then mixed to CpG-28 (10 μg/mouse). The CD8 immune responses were assessed on day 8).

[5] = Solubility and stability of oxidized Dopa or Dopamine solutions; format: physicochemical; details: for precipitation under centrifugation: 2 mg/ml oxidized solution, Dopa: oxygen at pH8.5, 16 000 g for 30 minutes; for aggregates under light microscopy: 2 mg/ml solution oxidized 20 hours, with or without pOVA 0.1 mg/ml
Experimental: Dopa (2 mg/ml) or Dopamine (2 mg/ml) solutions were incubated with or without the pOVA (0.1 mg/ml) at pH 7.4 or 8.5, and with different oxidizing agents (O2, ammonium persulfate) for 20 hours. All solutions darkened within a few hours. […] Under centrifugation, the dopamine solutions precipitated, and some dark material remained adherent to the tubes.

[6] = test system: viral epitope gPr73 (SFAVATTAL); assay: CD8 immune response to viral epitope gPr73 variants co-incubated with L-Dopa; format: in vivo; details: Balb/c mice; peptide co-incubated with L-Dopa, mixed to CpG-28
Experimental: as §3
Similar data were obtained with a viral epitope in Balb/c mice (gPr73: SFAVATTAL, SEQ ID NO: 8). […] In both cases, if a glutamate (E) was added next to the lysine, the efficacy was reduced (Table 2).

[7] = test system: IFNγ-secreting lymphocytes; assay: Elispot after immunization with formulations oxidized by different agents (Example 2, Table 1); format: in vivo, mice; details: H2O2 or ammonium persulfate as oxidant
Experimental: as §2
Other oxidizing agents such as hydrogen peroxide (H2O2) or ammonium persulfate (APS) can be used (FIG. 3).

[8] = Thin-layer chromatography of peptide and oxidized Dopa (complex formation); format: physicochemical; details: 72-hour incubation pH 8.5; hgp100 1 mg/ml, Dopa 10 mg/ml
Experimental: FIG. 8: Thin-layer chromatography (TLC) after a 72-hour incubation at pH 8.5 (Tris buffer). Left: hgp100 (SEQ ID NO: 3). only; middle: hgp100 (1 mg/ml) and Dopa (10 mg/ml), co-incubated with O2; right: hgp100 (1 mg/ml) added after Dopa (10 mg/ml) had been incubated with O2. […] (TLC was performed on aluminium foils, coated with a thin layer of silica gel as the stationary phase. After the samples have been loaded, a mixture of 1-Butanol/acetic acid/H2O (2/1/1) was used as the mobile phase. The TLC plates were then sprayed with ninhydrin reagent)
FIG. 9: Thin-layer chromatography (TLC) after a 72-hour incubation at pH 8.5 (Tris buffer). Left: hgp100 (, SEQ ID NO: 3) only; other lanes: hgp100 (1 mg/ml) incubated with various doses of Dopa (Dopa/hgp100 weight ratios: from 1/5 to 10/1). […] (TLC: similar conditions as FIG. 8).
In vitro experiments with Thin-layer chromatography (TLC) support the hypothesis that the incubation of the peptide while the catechol is being oxidized modifies the characteristic of the final formulation and that a complex is formed between the two entities (FIG. 8).

[9] = test system: anti-ovalbumine antibodies; assay: Humoral response: anti-ovalbumine antibody titers; format: in vivo, C57/Bml6 mice; details: day 14
Experimental: Ovalbumin protein (1 μg) was mixed to Dopa (1 μg) at pH 7.4, incubated for 4 hours with APS (0.3 μg), and injected subcutaneously with 10 μg in C57/Bml6 mice on day 0 and day 7.

[10] = 1 μg mixed to Dopa 1 μg pH 7.4, 4 hours APS 0.3 μg, subcutaneous day 0 and day 7

In the case of “SMLVLLPDEVSGLEQLESIINFEKLTEWTS (long OVA peptide) [SEQ ID NO:4]”, the “immune response, Dopamine as melanin precursor” value (“immune response, Dopamine” below) [1] is reported as “highest immune response”.

With “SMLVLLPKSVSGLSQLESIINFEKLTSWTS (neutral long OVA peptide) [SEQ ID NO: 5, long OVA peptide modified to be neutral]” the “immune response after 2 immunizations, Dopa as melanin precursor” value ([1]; + 10 μg CpG-28) was “intermediate” and the “immune response, Dopamine” value [1] was “intermediate”.

With “FSHHNIIRL (also: oxidized with L-Dopa to melanin) [EPHA2 peptide]” the “peptide from retentate heated in loading buffer containing SDS (SDS-page)” value ([2]; 16% polyacrylamide gel) was “got dissociated from melanin” and the “peptide in the filtrate after 10 kD filtration” value ([2]; peptide oxidized with L-Dopa at pH 8.5 in aerated conditions) was “no peptide could detected in the filtrate”.

With SIINFEKL [pOVA] the “CD8 / CTL immune response” value [1] was “did not trigger any significant CD8 immune response”, the “CD8 immune response (IFNg spots)” value [1] was “did not trigger any significant CD8 immune response” and the “amount of epitope sufficient to detect an immune response” value ([1]; epitope with DOPA model, data not shown) was no more than 10 ng.

In the case of TCCATGACGTTCCTGACGTT [compound 1826], the “number of IFNy-secreting lymphocytes mean +/− SD” value [3] is reported as 134 +/− 54.

For “pOVA-D: Ovalbumine epitope synthesized with a DOPA at the end of the peptide (SIINFEKL[Dopa])”, the “CD8 / CTL immune response” value [1] was “strong CTL immune responses”.

In the case of “TAAACGTTATAACGTTACGACGTCAT (listed as DNA, chemistry not given here) [CpG-28]”, the “immune responses, adjuvant added before versus after oxidation” value ([3]; L-DOPA 100 μg + hgp100 epitope, 18 hours oxygen) is reported as “similar” and the “number of IFNy-secreting lymphocytes mean +/− SD” value [3] is reported as 211 +/− 83.

For VYDFFVWL (MHC I epitope of Trp2), the “number of IFNy-secreting lymphocytes mean +/− SD” value [4] was 30 +/− 34.

With TGACTGTGAACGTTCGAGATGA [ISS] the “number of IFNy-secreting lymphocytes mean +/− SD” value [3] was 147 +/− 63.

In the case of CC(C)(C)OC(=O)N[C@@H](Cc1ccc(O)c(O)c1)C(=O)O [Boc-Dopa, N-(tert-Butyloxycarbonyl)-L-dopa], the “CD8 immune response with various melanin precursors” value ([3]; 18 hours oxygen) is reported as “reduced magnitude”.

In the case of NCCc1ccc(O)c(O)c1 [Dopamine], the CTL immune response ([1]; long OVA peptide combined to Dopamine, incubated 4 hours with APS, + 10 μg CpG-28) is reported as “triggered an immune response”, the “CD8 immune response with various melanin precursors” value ([3]; 18 hours oxygen) is reported as “reduced magnitude” and the precipitation under centrifugation [5] is reported as “precipitated”. For the same molecule, the “aggregates under light microscopy” value [5] was “large aggregates were seen under light microscopy”.

For Oc1cccc2cccc(O)c12 [di-hydroxynaphtalene], the “CD8 immune response with various melanin precursors” value ([3]; 18 hours oxygen) was “significant CD8 immune response”.

With “SMLVLLPKKVSGLKQLESIINFEKLTKWTS (positive long OVA peptide) [SEQ ID NO: 6, long OVA peptide modified to be positively charged]” the “immune response after 2 immunizations, Dopa as melanin precursor” value ([1]; + 10 μg CpG-28) was “strong” and the “immune response, Dopamine” value [1] was “lowest one”.

In the case of SFAVATTAL (Viral epitope of gPr73), the “number of IFNy-secreting lymphocytes mean +/− SD” value [6] is reported as 5 +/− 4.

In the case of “D-pOVA: Ovalbumine epitope synthesized with a DOPA at the beginning of the peptide ([Dopa]SIINFEKL)”, the “CD8 / CTL immune response” value [1] is reported as “strong CTL immune responses”.

With N[C@@H](Cc1ccc(O)c(O)c1)C(=O)O [L-Dopa, L-3,4-dihydroxyphenylalanine] the “CD8 immune response (IFNg spots)” value [1] was “able to induce IFNg spots”, the CD8 immune response ([3]; 10 μg hgp100 epitope co-incubated with 100 μg DOPA pH 8.5, 18 hours oxygen, + CpG-28) was “significant CD8 immune response” and the “CD8 immune response with various melanin precursors” value ([3]; 18 hours oxygen) was “significant CD8 immune response”. The “optimal molar ratio of oxidant/Dopa for vaccine efficacy” value [7] was “around 1/4”, the precipitation under centrifugation [5] was “did not precipitate” and the “aggregates under light microscopy” value [5] was “no aggregates can be seen”. For the same molecule, the “filterability of the oxidized solution” value ([5]; incubated with oxygen at pH8.5) was “can be filtered through a 0.2 μm filter, but not through a 100 kDalton-cut off filter” and the “stability of the oxidized solution” value ([5]; incubated with oxygen at pH8.5) was “stable for several weeks”.

In the case of N[C@H](Cc1ccc(O)c(O)c1)C(=O)O [D-Dopa, D-3,4-dihydroxyphenylalanine], the “CD8 immune response with various melanin precursors” value ([3]; 18 hours oxygen) is reported as “significant CD8 immune response”.

With “KVPRNQDWL (human gp100 epitope) [hgp100]” the “mean number of IFNγ-secreting lymphocytes +/−SD” value ([3]; C57BL/6 mice, gp100 10 μg/mouse, with or without L-Dopa 40 μg/mouse (18 hours aerated), combined to poly I:C 10 μg/mouse) was 1+/−1, the “minimal dose of the epitope required to induce CTLs” value ([3]; gp100-melanin formulation) was 0.5 µg and the “IFNγ-secreting lymphocytes when combined with CpG” value ([3]; mixed with TLR9 agonist CpG-28, n=8 mice/group) was “not”. For the same molecule, the “CTL response, epitope added after L-Dopa had been oxidized instead of before” value ([3]; mouse, in vivo) was “a reduction in the CTL response was observed”, the “free peptide on TLC, Dopa and peptide co-incubated with oxidizing agent” value [8] was “not seen any more and not” and the “free peptide on TLC, peptide added after Dopa had been oxidized” value [8] was “Free peptide was seen”.

In the case of NC(Cc1cc(O)c(O)cc1O)C(=O)O (stereo not shown) [6-hydroxydopa, 6-Hydroxy-DOPA], the “CD8 immune response with various melanin precursors” value ([3]; 18 hours oxygen) is reported as “significant CD8 immune response”.

B1: Ovalbumin protein: Ovalbumin protein mixed to Dopa at pH 7.4 and incubated with APS (composition melanin/antigen) (protein)
chain: GSIGAASMEFCFDVFKELKVHHANENIFYCPIAIMSALAMVYLGAKDSTRTQINKVVRFDKLPGFGDSIEAQCGTSVNVHSSLRDILNQITKPNDVYSFSLASRLYAEERYPILPEYLQCVKELYRGGLEPINFQTAADQARELINSWVESQTNGIIRNVLQPSSVDSQTAMVLVNAIVFKGLWEKAFKDEDTQAMPFRVTEQESKPVQMMYQIGLFRVASMASEKMKILELPFASGTMSMLVLLPDEVSGLEQLESIINFEKLTEWTSSNVMEERKIKVYLPRMKMEEKYNLTSVLMAMGITDVFSSSANLSGISSAESLKISQAVHAAHAEINEAGREVVGSAEAGVDAASVSEEFRADHPFLFCIKHIATNAVLFFGRCVSP
In the case of B1, the “titer of anti-ovalbumine antibodies IgG1” value [9, 10] is reported as 1/8000, the “titer of anti-ovalbumine antibodies IgG2b” value [9, 10] is reported as 1/5250 and the “type of immune response (IgG subtypes)” value [9] is reported as “mixed Th1 and Th2 immune response”.
